Measured values: patent US6610315B2, “Topical application of stable hydroalcoholic compositions for maintaining or improving skin conditions, and delivering fragrance to skin” (3M Innovative Properties Company, priority 1995, dated 2003)

Experiments:
[1] = system: S. Aureus ATCC 14154 (lab strain 502); experiment: Minimum Inhibitory Concentration (MIC); assay type: cell-based
Description: (§1) An overnight culture of E. coli ATCC8739 (lab strain 223) and/or S. Aureus ATCC 14154 (lab strain 502) grown on trypticase soy agar plates was resuspended in Mueller-Hinton Broth to a cell density of 0.6-1.2×10^6 colony forming units per milliliter. Chlorhexidine samples were prepared by adjusting CHG to 512 μg/ml in Mueller-Hinton Broth and serially diluting in two-fold steps in Mueller-Hinton Broth. The CHG-containing Mueller-Hinton Broth was placed in 96-well sterile microliter plates and each well was inoculated with the bacteria. The plates were then incubated for 24-48 hrs at 37° C. Bacterial growth was determined visually by comparing the plates.

[2] = system: E. coli ATCC8739 (lab strain 223); experiment: Minimum Inhibitory Concentration (MIC); assay type: cell-based
Description: as §1

[3] = Example 9, lowest concentration of CHG giving complete kill, 24-48 hrs at 37° C.
[4] = Example 24, CHG at 0.5% by weight where present

N=C(NCCCCCCNC(=N)NC(=N)Nc1ccc(Cl)cc1)NC(=N)Nc1ccc(Cl)cc1.O=C(O)[C@H](O)[C@@H](O)[C@H](O)[C@H](O)CO.O=C(O)[C@H](O)[C@@H](O)[C@H](O)[C@H](O)CO [0.5% CHG std., chlorhexidine gluconate]
4 µg/mL: MIC (μg/ml) S. aureus [1, 3] | S aureus 502 MIC [1, 4] | MIC (μg/ml) E. coli [2, 3] | E. coli 223 MIC [2, 4]
